{"source": "patent US5817669A", "about": "“Compounds, processes for the preparation thereof and anti-tumor agents” (Dainippon Pharmaceutical Co., Ltd., priority 1994, dated 1998)", "key": {"[1]": {"tested_on": "KB human nasopharynx cancer", "assay": "In vitro anti-tumor activity against KB human nasopharynx cancer (MTT)", "format": "cell-based", "settings": "KB, 72 h, MTT, read-out: IC50", "procedure,_shortened": "(§1)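 Growth inhibition was measured by MTT reduction after 72-hour compound exposure of cells plated at 500 to 2,000 per well and allowed to attach for 20 hours at 37° C.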"}, "A427 human lung cancer": {"tested_on": "A427 human lung cancer", "assay": "In vitro anti-tumor activity against A-427 human lung cancer (MTT)", "format": "cell-based", "settings": "A-427, 72 h, MTT, read-out: IC50", "procedure,_shortened": "as §1"}, "Acute toxicity": {"assay": "Acute toxicity", "settings": "mouse, in vivo; Intraperitoneal administration (ip), mice, 14th day", "protocol": "Solutions of test compounds in predetermined concentrations were administered (0.1 ml/10 g body weight) to female BALB/c CrSlc mice (5 to 10 animals per one group, 10 weeks old) respectively, and, thus, LD50 values were calculated from the mortalities of the mice on the 14th day after the administration."}, "[2]": {"tested_on": "colon 26 murine tumor cells", "assay": "Tumor growth inhibition effect on colon 26 murine tumor cells implanted mice", "format": "in vivo, SLC: CDF1 mice", "settings": "Mus musculus, Colon 26, 504 h; ip, 1.56 mg/kg once a day, days 1-9; day 21 or 22; read-out: Tumor growth inhibition rate IR (%)", "procedure,_shortened": "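CDF1 female mice (7–9 weeks, 7 per group) implanted intracutaneously in the abdomen with 2% brei of colon 26 cells. Compound given ip once daily from day 1 to day 9. Tumor weight estimated from diameters on day 21 or 22; IR % = [1 − (treated MTW/control MTW)] × 100.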"}, "[3]": {"tested_on": "WiDr human colorectal cancer", "assay": "In vitro anti-tumor activity against WiDr human colorectal cancer (MTT)", "format": "cell-based", "settings": "72 h, MTT, read-out: IC50", "procedure,_shortened": "as §1"}, "[4]": {"tested_on": "AZ521 human stomach cancer", "assay": "In vitro anti-tumor activity against AZ-521 human stomach cancer (MTT)", "format": "cell-based", "settings": "AZ-521, 72 h, MTT, read-out: IC50", "procedure,_shortened": "as §1"}, "[5]": {"tested_on": "MKN45 human stomach cancer", "assay": "In vitro anti-tumor activity against MKN45 human stomach cancer (MTT)", "format": "cell-based", "settings": "MKN-45, MKN45, 72 h, MTT, read-out: IC50", "procedure,_shortened": "as §1"}}}
{"smiles": "CN[C@@H]1CN(c2ccc3c(=O)c(C(=O)O)cn(-c4nccs4)c3n2)C[C@H]1OC.Cl", "note": "(relative stereo) [Compound 1-1, 1,4-dihydro-7-(trans-3-methoxy-4-methylamino-1-pyrrolidinyl)-4-oxo-1-(2-thiazolyl)-1,8-naphthyridine-3-carboxylic acid hydrochloride]", "values": [{"measurement": "IC50", "setting": "[1]", "result": 0.11, "unit": "µg/mL"}, {"measurement": "IC50", "setting": "A427 human lung cancer", "result": 0.0871, "unit": "µg/mL"}, {"measurement": "LD50 at 336 h", "setting": "Acute toxicity", "result": 93.2, "unit": "mg/kg"}, {"measurement": "inhibition in vivo at 1.56 mg/kg", "setting": "[2]", "result": 86, "unit": "%"}, {"measurement": "IC50", "setting": "[3]", "result": 0.379, "unit": "µg/mL"}, {"measurement": "IC50", "setting": "[4]", "result": 0.0561, "unit": "µg/mL"}, {"measurement": "IC50", "setting": "[5]", "result": 0.15, "unit": "µg/mL"}]}
